From patent US12378206B2, “Heteroaryl butanoic acid derivatives” (NOVARTIS AG, priority 2013, dated 2025)
Where two headings read alike, the source gives them in different places.

How the values were obtained:
human LTA4H = biological target: T1, human LTA4H (Homo sapiens, UniProt P09960); experiment: Human LTA4H enzyme assay (Arg-AMC surrogate substrate, fluorescence); format: biochemical; conditions: read-out: ArgAMC IC50
T1 sequence (P09960 1-611): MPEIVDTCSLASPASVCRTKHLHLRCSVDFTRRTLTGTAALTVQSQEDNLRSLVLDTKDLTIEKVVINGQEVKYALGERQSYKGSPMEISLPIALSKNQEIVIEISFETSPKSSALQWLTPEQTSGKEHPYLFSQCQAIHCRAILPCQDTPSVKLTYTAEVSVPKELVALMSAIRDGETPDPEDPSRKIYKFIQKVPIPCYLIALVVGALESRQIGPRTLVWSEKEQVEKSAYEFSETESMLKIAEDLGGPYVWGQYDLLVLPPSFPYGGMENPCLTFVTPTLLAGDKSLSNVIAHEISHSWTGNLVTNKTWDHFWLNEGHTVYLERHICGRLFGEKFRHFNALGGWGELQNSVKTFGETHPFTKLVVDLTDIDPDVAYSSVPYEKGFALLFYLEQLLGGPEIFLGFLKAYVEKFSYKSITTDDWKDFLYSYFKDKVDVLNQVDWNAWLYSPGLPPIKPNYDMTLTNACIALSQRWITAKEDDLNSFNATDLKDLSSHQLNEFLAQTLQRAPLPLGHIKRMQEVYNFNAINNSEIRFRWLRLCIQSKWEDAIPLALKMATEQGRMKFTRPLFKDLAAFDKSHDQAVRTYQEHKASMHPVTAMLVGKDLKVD
Experimental: Leukotriene A4 hydrolase (LTA4H) catalyzes the vinylogous hydrolysis of the epoxide, leukotriene A4 (LTA4) into the pro-inflammatory mediator LTB4.
For compound testing, compounds are delivered as 10 mM stock solutions in 90% DMSO (10% water) in matrix tubes. […] The enzyme compound mixture is incubated at room temperature for 15 minutes prior to the addition of 50 μL substrate solution. A final substrate concentration of 600 μM, which is around the KM value of Arg-AMC, at a final enzyme concentration of 9 nM is chosen. Upon addition of the substrate, the plate is immediately placed in a fluorescence reader and the fluorescence is measured every 10 minutes for 60 minutes using the filter setting λexcitation=380 nm and λemission=460 nm. […] Raw data is converted to rate (moles per minute) using the AMC calibration curve calculated from the AMC standards. The data is analyzed in GraphPad Prism (GraphPad software Inc.) using non-linear regression to determine IC50 values of LTA4H inhibitors.

[1] = test system: LTB4 biosynthesis in human whole blood; experiment: Human whole blood assay (hWB): inhibition of LTB4 biosynthesis after A23187 stimulation, ELISA; format: cell-based
Experimental: Compounds are tested in a human whole blood assay (hWB) to test their ability to inhibit LTB4 biosynthesis in a human cellular system. To this end, fresh blood is collected in heparinized vacutainers by venipuncture from volunteers. Blood is diluted 1:3 with RPMI (Roswell Park Memorial Institute) medium and aliquots of 200 μL are transferred to 96-well round bottom cell culture plates. For compound testing, compounds are delivered as 10 mM stock solutions in 90% DMSO in matrix tubes. […] 4 μL of compound dilution or vehicle is added to 200 μL of blood and incubated for 15 min at 37° C. in a humidified incubator. Then blood is stimulated with 10 μg/ml calcium ionophore A23187 (Sigma) or equal volume DMSO (control) and incubated for an additional 15 min at 37° C. in a humidified incubator. Incubation is terminated by centrifugation at 300 g for 10 min at 22° C. Plasma supernatant is taken and transferred to a 96 well plate for eicosanoid determination by ELISA (Assay designs) according to the manufacturer's protocol after 1:20 dilution in assay buffer. The data is analyzed in GraphPad Prism (GraphPad software Inc.) using non-linear regression to determine IC50 values of LTA4H inhibitors.

LTB4 release = experiment: Murine PD assay: ex vivo A23187-stimulated LTB4 release in blood after p.o. dosing; set-up: species or system female C57BL/6 mice; conditions: Mus musculus, po, read-out: PD effect [%] inhibition of LTB4 release
Experimental: LTA4H inhibitor compounds or vehicle control (30% PEG200 (70%), 5% Glucose) is applied per os (p.o.) in a dose of 0.3 mg/kg to female C57BL/6 mice (Charles River France). Three hours after application of compound, mice are terminally bled and blood is collected in heparinized tubes. Collected blood is diluted 1:3 in RPMI medium, added in 96-well round bottom cell culture plates and incubated with 10 μg/ml calcium ionophore A23187 (Sigma) or equal volume DMSO (control) for 15 min at 37° C. in a humidified incubator. Incubation is terminated by centrifugation at 300 g for 10 min at 22° C. Plasma supernatant is taken, diluted 1:10 in assay buffer and transferred to a 96 well plate for eicosanoid determination by ELISA (Assay designs) according to the manufacturer's protocol.

[2] = human whole blood diluted 1:3, 10 μg/ml calcium ionophore A23187, LTB4 by ELISA, read-out: hWB IC50
[3] = Homo sapiens, read-out: hWB IC50 (nM)
[4] = 0.3 mg/kg p.o., female C57BL/6 mice, blood taken 3 hours after application, ex vivo A23187 stimulation, versus vehicle control

IC50 (human LTA4H) [nM]	IC50 [1, 2] [nM]	SMILES	inhibition at 0.3 mg/kg (LTB4 release; 3 h) [%]	IC50 [1, 3] [nM]	inhibition at 0.3 mg/kg (LTB4 release; [4]) [%]
8	294	N[C@H](CC(=O)O)Cn1nnc(-c2cccc(Oc3cc(F)cc(F)c3)c2)n1 [Example 22, (R)-3-amino-4-(5-(3-(3,5-difluorophenoxy)phenyl)-2H-tetrazol-2-yl)butanoic acid]			
3	728	N[C@@H](CC(=O)O)Cn1cc(-c2ccc(Oc3ccc(Cl)cc3)cc2)cn1 [Example 28, (S)-3-amino-4-(4-(4-(4-chlorophenoxy)phenyl)-1H-pyrazol-1-yl)butanoic acid]			
5	270	N[C@H](CC(=O)O)Cn1nnc(-c2ccc(Oc3ccc(C(F)(F)F)cn3)cc2)n1 [Example 20, (R)-3-amino-4-(5-(4-((5-(trifluoromethyl)pyridin-2-yl)oxy)phenyl)-2H-tetrazol-2-yl)butanoic acid]			
3	282	N[C@H](CC(=O)O)Cn1nnc(-c2ccc(Oc3ccc(F)c(Cl)c3)cc2)n1 [Example 8, (R)-3-amino-4-(5-(4-(3-chloro-4-fluorophenoxy)phenyl)-2H-tetrazol-2-yl)butanoic acid]			
≤ 2	86	N[C@H](CC(=O)O)Cn1nnc(-c2cccc(OCCc3ccccc3)c2)n1 [Example 13, (R)-3-amino-4-(5-(3-phenethoxyphenyl)-2H-tetrazol-2-yl)butanoic acid]			55
3	282	N[C@@H](CC(=O)O)Cc1nnc(-c2ccc(Oc3ccc(F)cc3)cc2)o1 [Example 24, (R)-3-amino-4-(5-(4-(4-fluorophenoxy)phenyl)-1,3,4-oxadiazol-2-yl)butanoic acid]			
≤ 2	173	Cc1ccc(Oc2ccc(-c3nnn(C[C@@H](N)CC(=O)O)n3)cc2)cc1 [Example 23, (S)-3-amino-4-(5-(4-(p-tolyloxy)phenyl)-2H-tetrazol-2-yl)butanoic acid]			44
3	126	N[C@@H](CC(=O)O)Cc1nc(-c2ccc(Oc3ccc(Cl)cc3)cc2)no1 [Example 26, (R)-3-amino-4-(3-(4-(4-chlorophenoxy)phenyl)-1,2,4-oxadiazol-5-yl)butanoic acid]			
3	382	N[C@@H](CC(=O)O)Cc1nnc(-c2ccc(Oc3ccc(Cl)cc3)cc2)o1 [Example 25, (R)-3-amino-4-(5-(4-(4-chlorophenoxy)phenyl)-1,3,4-oxadiazol-2-yl)butanoic acid]			
≤ 2	402	Cc1ccc(Oc2ccc(-c3nnn(C[C@H](N)CC(=O)O)n3)cc2)cc1 [Example 9, (R)-3-amino-4-(5-(4-(p-tolyloxy)phenyl)-2H-tetrazol-2-yl)butanoic acid]			
4	214	N[C@@H](CC(=O)O)Cn1nnc(-c2cccc(Oc3ccccc3)c2)n1 [Example 10, (S)-3-amino-4-(5-(3-phenoxyphenyl)-2H-tetrazol-2-yl)butanoic acid]			
3	396	N[C@H](CC(=O)O)Cn1nnc(-c2cccc(Oc3ccc(Cl)cc3)c2)n1 [Example 5, (R)-3-amino-4-(5-(3-(4-chlorophenoxy)phenyl)-2H-tetrazol-2-yl)butanoic acid]			
10	218	NC(=O)C[C@H](N)Cc1nc(-c2ccc(Oc3ccc(Cl)cc3)cc2)no1 [Example 27, (R)-3-amino-4-(3-(4-(4-chlorophenoxy)phenyl)-1,2,4-oxadiazol-5-yl)butanamide]			
5	209	N[C@H](CC(=O)O)Cn1nnc(-c2cccc(Oc3nc4ccccc4s3)c2)n1 [Example 21, (R)-3-amino-4-(5-(3-(benzo[d]thiazol-2-yloxy)phenyl)-2H-tetrazol-2-yl)butanoic acid]			

SMILES	IC50 (human LTA4H) [nM]	IC50 [1, 2] [nM]	inhibition at 0.3 mg/kg (LTB4 release; 3 h) [%]	IC50 [1, 3] [nM]	inhibition at 0.3 mg/kg (LTB4 release; [4]) [%]
N[C@H](CC(=O)O)Cn1nnc(-c2ccc(OCc3ccccc3)cc2)n1 [Example 15, (R)-3-amino-4-(5-(4-(benzyloxy)phenyl)-2H-tetrazol-2-yl)butanoic acid]	≤ 2		49	81	
N[C@H](CC(=O)O)Cn1nnc(-c2cccc(OCc3ccccc3)c2)n1 [Example 16, (R)-3-amino-4-(5-(3-(benzyloxy)phenyl)-2H-tetrazol-2-yl)butanoic acid]	3		9	165	
N[C@H](CC(=O)O)Cn1nnc(-c2cccc(Oc3ccc(C(F)(F)F)cn3)c2)n1 [Example 19, (R)-3-amino-4-(5-(3-((5-(trifluoromethyl)pyridin-2-yl)oxy)phenyl)-2H-tetrazol-2-yl)butanoic acid]	3			273	
CCCCOc1ccc(-c2nnn(C[C@H](N)CC(=O)O)n2)cc1 [Example 17, (R)-3-amino-4-(5-(4-butoxyphenyl)-2H-tetrazol-2-yl)butanoic acid]	4		47	183	
